{"source": "patent US20080286315A1", "about": "“Methionine Enkephalin as an Adjuvant for Vaccine Immunizations” (Penta Biotech, Inc., priority 2007, published 2008)", "assay_type_in_all_cases": "cell-based, IRM-2 mice", "key": {"dendritic cells [1]": {"test_system": "dendritic cells", "test": "Micrographs of dendritic cells (400x)", "conditions": "60 ng/ml MEK; with IL-4 and GM-CSF", "excerpt": "FIGS. 1 and 2 show micrographs of dendritic cells magnified 400×. Cells were isolated and cultured as described above."}, "cultured dendritic cells": {"test_system": "cultured dendritic cells", "test": "IL-12 levels in supernatants of cultured dendritic cells (IL-12 ELISA)", "conditions": "supernatant day 9", "experimental": "(§1) Immature dendritic cells were isolated from spleens of IRM-2 mice with lymphocyte separation solution. The method used was adapted from a method of isolating lymphocytes using a centrifugation technique. First, diluted defibrinated blood was layered on a solution of sodium metrizoate and Dextran or Ficoll® and centrifuged at low speeds for 30 minutes. […] Mononuclear cells (lymphocytes and monocytes) and platelets are contained in the banded plasma-lymphocyte separation medium interphase due to their density. Erythrocytes and granulocytes migrate through the gradient and form a pellet to the bottom of the tube. Lymphocytes were recovered by aspirating the plasma layer and removing the cells. After proper washing and treatment, cells were suspended in RPMI-1640 containing 10% FCS and incubated in a CO2-incubator (37° C., 5% CO2) for 2 hours before use.\n(§2) The immature dendritic cells were divided into 6 groups and were centrifuged to remove the supernatants. RPMI-1640 containing 10 ng/ml IL-4, 100 ng/ml GM-CSF, 10% FCS, and MEK at either 0 ng/ml, 7.5 ng/ml, 15 ng/ml, 30 ng/ml, 60 ng/ml or 120 ng/ml was then added to the cells. The final cell density was 2×10^5 cells/ml. Cells were returned to the CO2-incubator and the media were replaced in half volumes every other day starting on the 3rd day. Cells were allowed to grow for 9 days and thereafter cell numbers were counted with an inverted phase-contrasted microscope. The group of cells having the highest density was regarded as having the most optimum conditions in terms of concentration for cytokines. Cell density was determined using the MTT [3-(4,5-Dimethylthiazol-2-yl)-2,5-Diphenyltetrazolium Bromide] assay, using methods known in the art. MEK facilitated the growth and multiplication of dendritic cells in a concentration dependent fashion. The effects were greatest with a MEK concentration at around 60 ng/ml and then decreased thereafter as MEK concentration increased.\nTo further characterize the cultured cells, cell culture supernatants were collected on the 9th day of incubation and were assayed according to the procedures defined in the IL-12 ELISA Assay Kit obtained from eBioscience, USA. IL-12 is a cytokine known to be secreted by mature dendritic cells."}, "dendritic cells [2]": {"test_system": "dendritic cells", "test": "Dendritic cell surface marker expression (FITC antibodies to CD11c and CD80, flow cytometry)", "conditions": "day 9", "experimental": "as §1, §2\nCells isolated and cultured as described above were processed on the 9th day with the addition of FITC labeled antibodies to CD11c and CD80. CD11c is the most specific cell surface marker for mature dendritic cells. CD80 is another marker that is expressed on mature dendritic cells. Stained cells were analyzed with a flow cell cytometer and cells expressing fluorescence markers were regarded as positive. The positive rates were analyzed and calculated using Bios Consort 30 software."}, "immature dendritic cells": {"test_system": "immature dendritic cells", "test": "Dendritic cell density and proliferation with different concentrations of MEK (cell counting / MTT assay)", "conditions": "for Cell Density: 9 days culture with IL-4 and GM-CSF; for Increase Percent: control = 100.0", "experimental": "as §1, §2"}}}
{"smiles": "CSCC[C@H](NC(=O)[C@@H](Cc1ccccc1)NC(=O)CNC(=O)CNC(=O)[C@H](N)Cc1ccc(O)cc1)C(=O)O", "note": "[MEK, methionine enkephalin]", "values": [{"measurement": "cell density in micrographs versus cells not treated with MEK", "setting": "dendritic cells [1]", "result": "increase in cell density"}, {"measurement": "cell processes (veils or dendrites) on the dendritic cells versus cells not treated with MEK", "setting": "dendritic cells [1]", "result": "increase in cell processes"}, {"measurement": "IL-12 Level", "setting": "cultured dendritic cells; MEK 7.5 ng/ml, control 68", "result": "102 ± 1.1", "unit": "pg/mL"}, {"measurement": "IL-12 Level", "setting": "cultured dendritic cells; MEK 15 ng/ml", "result": "126 ± 0.4", "unit": "pg/mL"}, {"measurement": "IL-12 Level", "setting": "cultured dendritic cells; MEK 30 ng/ml", "result": "175 ± 1.6", "unit": "pg/mL"}, {"measurement": "IL-12 Level", "setting": "cultured dendritic cells; MEK 60 ng/ml", "result": "256 ± 0.3", "unit": "pg/mL"}, {"measurement": "IL-12 Level", "setting": "cultured dendritic cells; MEK 120 ng/ml", "result": "227 ± 1.9", "unit": "pg/mL"}, {"measurement": "CD11C(+) %", "setting": "dendritic cells [2]; MEK 7.5 ng/ml, control 47.2", "result": 49.9, "unit": "%"}, {"measurement": "CD80(+) %", "setting": "dendritic cells [2]; MEK 7.5 ng/ml, control 50.3", "result": 51.3, "unit": "%"}, {"measurement": "CD11C(+) %", "setting": "dendritic cells [2]; MEK 15 ng/ml", "result": 51.3, "unit": "%"}, {"measurement": "CD80(+) %", "setting": "dendritic cells [2]; MEK 15 ng/ml", "result": 54.1, "unit": "%"}, {"measurement": "CD11C(+) %", "setting": "dendritic cells [2]; MEK 30 ng/ml", "result": 55.6, "unit": "%"}, {"measurement": "CD80(+) %", "setting": "dendritic cells [2]; MEK 30 ng/ml", "result": 58.7, "unit": "%"}, {"measurement": "CD11C(+) %", "setting": "dendritic cells [2]; MEK 60 ng/ml", "result": 62.7, "unit": "%"}, {"measurement": "CD80(+) %", "setting": "dendritic cells [2]; MEK 60 ng/ml", "result": 64.6, "unit": "%"}, {"measurement": "CD11C(+) %", "setting": "dendritic cells [2]; MEK 120 ng/ml", "result": 57.3, "unit": "%"}, {"measurement": "CD80(+) %", "setting": "dendritic cells [2]; MEK 120 ng/ml", "result": 63.3, "unit": "%"}, {"measurement": "Cell Density", "setting": "immature dendritic cells; MEK 7.5 ng/ml, start 2x10^5 cells/ml", "result": "2.2 ± 0.1 10^5/ml"}, {"measurement": "Increase Percent", "setting": "immature dendritic cells; MEK 7.5 ng/ml", "result": 127.1, "unit": "%"}, {"measurement": "Cell Density", "setting": "immature dendritic cells; MEK 15 ng/ml", "result": "2.5 ± 0.2 10^5/ml"}, {"measurement": "Increase Percent", "setting": "immature dendritic cells; MEK 15 ng/ml", "result": 133.3, "unit": "%"}, {"measurement": "Cell Density", "setting": "immature dendritic cells; MEK 30 ng/ml", "result": "2.9 ± 1.2 10^5/ml"}, {"measurement": "Increase Percent", "setting": "immature dendritic cells; MEK 30 ng/ml", "result": 159.2, "unit": "%"}, {"measurement": "Cell Density", "setting": "immature dendritic cells; MEK 60 ng/ml", "result": "4.8 ± 0.2 10^5/ml"}, {"measurement": "Increase Percent", "setting": "immature dendritic cells; MEK 60 ng/ml", "result": 246.5, "unit": "%"}, {"measurement": "Cell Density", "setting": "immature dendritic cells; MEK 120 ng/ml", "result": "3.1 ± 0.1 10^5/ml"}, {"measurement": "Increase Percent", "setting": "immature dendritic cells; MEK 120 ng/ml", "result": 165.5, "unit": "%"}, {"measurement": "MEK concentration with greatest effect on growth and multiplication of dendritic cells", "setting": "immature dendritic cells; tested 7.5-120 ng/ml, concentration dependent", "result": "around 60 ng/ml"}]}
